Publication doi:10.1101/2022.04.25.489410v1 (biorxiv, 2022)

How the values were obtained:
Assay type in all cases: biochemical, uncultured bacterium
SN243 [1] = assay: fluorescence, initial rates, Michaelis-Menten fit; conditions: 100 mM Tris pH 8.0, 150 mM NaCl, 25 °C
SN243 [2] = assay: product inhibition of pNP-β-GlcA hydrolysis; conditions: 10 μM pNP-β-GlcA; 100 mM Tris pH 8.0, 150 mM NaCl, 25 °C
SN243 [3] = assay: absorbance at […] nm, initial rates, Michaelis-Menten fit; conditions: 100 mM Tris pH 8.0, 150 mM NaCl, 25 °C

Row | Km (SN243 [3]) | Structure (SMILES) | further results
1 |  | O=C1OC2(c3ccc(O[C@@H]4O[C@H](C(=O)O)[C@@H](O)[C@H](O)[C@H]4O)cc3Oc3cc(O[C@@H]4O[C@H](C(=O)O)[C@@H](O)[C@H](O)[C@H]4O)ccc32)c2ccccc21 [FD-β-GlcA] | Km (SN243 [1]): 0.008 mM
2 |  | O=C(O)[C@H]1OC(O)[C@H](O)[C@@H](O)[C@@H]1O (some centres unmarked) [GlcA] | IC50 (SN243 [2]): 179 µM
3 | 56.5 ± 4.1 mM | O=[N+]([O-])c1ccc(O[C@@H]2O[C@H](CO)[C@@H](O)[C@H](O)[C@H]2O)cc1 [pNP-β-Glc] | 
4 | 23 ± 0.9 mM | O=[N+]([O-])c1ccc(O[C@@H]2OC[C@@H](O)[C@H](O)[C@H]2O)cc1 [pNP-β-Xyl] | 

Row | Structure (SMILES) | Km (SN243 [3]) | further results
5 | O=C(O)[C@H]1O[C@@H](Oc2ccc([N+](=O)[O-])cc2)[C@H](O)[C@@H](O)[C@@H]1O [pNP-β-GlcA] | 0.0137 mM | 
